Test results as given in patent US9700637B2, “Reaction-based fluorescent probes for detecting zinc” (Massachusetts Institute of Technology, priority 2013, dated 2017).

How the values were obtained:
[1] = pH profile of fluorescence; assay type: physicochemical
Protocol: FIG. 21 depicts normalized fluorescence signals for DA-ZP1-TPP as a function of increasing pH in the presence of 125 μM ZnCl2 or 250 μM EDTA. Data were acquired 17.5 mM (0.1% v/v) acetic acid in milli-Q H2O beginning at pH 3.5. The pH of the solution was increased by sequential addition of aqueous KOH. The total volume of KOH added was less than 5% of the total volume. λex=475 nm.
FIG. 26 depicts in vitro characterization of DA-ZP1-A3. (a) UV-vis and (b) fluorescence spectra of a 5 μM solution of DA-ZP1-A3 in buffer (50 mM PIPES, 100 mM KCl; pH 7). Spectra were acquired initially, upon addition of 100 μM ZnCl2, and again after addition of 200 μM EDTA. (c) Time-dependent change in the normalized absorbance of a ca. 5 μM solution DA-ZP1-A3 at 37° C. in buffer (50 mM PIPES, 100 mM KCl; pH 7) in the presence of 100 μM ZnCl2 (λabs=510 nm) or EDTA (λabs=520 nm). (d) Integrated fluorescence intensity of a 1 μM solution of ZP1-A3 (circles) or DA-ZP1-A3 (squares) as a function of pH.
Next, we investigated the pH profile of DA-ZP1-TPP. The use of nitrogen atoms to coordinate zinc endows Zinpyr sensors with selectivity for zinc over calcium and magnesium, but also renders them pH sensitive. […] Protonation of these amines leads to increased background fluorescence because protons can diminish PeT in a manner similar to that of zinc ions. […]

[2] = Metal ion selectivity of fluorescence response; assay type: physicochemical; details: 50 mM PIPES pH 7, 100 mM KCl, 25° C.
Protocol: FIG. 22 depicts metal ion selectivity of DA-ZP1-TPP. Average normalized fluorescence intensities for a 1.1 μM solution of DA-ZP1-TPP in 50 mM PIPES buffer (pH 7) with 100 mM KCl at 25° C., after addition of 50 μM-2 mM concentrations of various metal ions (white bars), followed by addition of 50 μM ZnCl2 (black bars). The grey column represents the average sensor intensity after addition of 100 μM EDTA. Data were normalized to initial measured emission intensity at λex=495 nm.
DA-ZP1-TPP has a zinc-induced fluorescence response and is relatively stable to uncatalyzed hydrolysis and esterase activity. […] Other late 3d-block transition metal ions, such as Co(II) and Cu(II), can coordinate to DA-ZP1-TPP but are generally not available in appreciable chelatable quantities within the cell. In addition to monitoring selectivity in the fluorescence response, we used UV-vis spectroscopy to investigate the rate and zinc-specificity of metal-mediated ester hydrolysis. […] By monitoring the absorbance of the xanthene it system, we could interrogate deacetylation kinetics in a manner that is independent of the fluorescence response. […] To determine whether ester hydrolysis depends on the metal-binding core of DA-ZP1-TPP, we measured the deacetylation kinetics of fluorescein diacetate (DA-FL) under analogous conditions. […]

[3] = test system: porcine liver esterase; test: Deacetylation by porcine liver esterase (UV-vis absorbance); assay type: in vitro ADME; details: 1.25 units porcine liver esterase, 37° C., pH 7
Protocol: FIG. 23 depicts kinetic traces for the deacetylation of DA-ZP1-TPP. The half-life for deacetylation of a 2.75 μM solution of DA-ZP1-TPP, at 37° C. in 50 mM PIPES buffer (pH 7) and 100 mM KCl, was measured in the presence of 125 μM ZnCl2 (+Zn), 250 μM EDTA (−Zn), or 1.25 units of porcine liver esterase (Esterase). The change in absorbance at 520 nm (EDTA and esterase) or 510 nm (ZnCl2) was used to monitor the reaction.
DA-ZP1-TPP has a zinc-induced fluorescence response and is relatively stable to uncatalyzed hydrolysis and esterase activity. […] Other late 3d-block transition metal ions, such as Co(II) and Cu(II), can coordinate to DA-ZP1-TPP but are generally not available in appreciable chelatable quantities within the cell. In addition to monitoring selectivity in the fluorescence response, we used UV-vis spectroscopy to investigate the rate and zinc-specificity of metal-mediated ester hydrolysis. DA-ZP1-TPP deacetylation results in opening of the lactone ring and restoration of conjugation across the xanthene ring. By monitoring the absorbance of the xanthene it system, we could interrogate deacetylation kinetics in a manner that is independent of the fluorescence response. […] To determine whether ester hydrolysis depends on the metal-binding core of DA-ZP1-TPP, we measured the deacetylation kinetics of fluorescein diacetate (DA-FL) under analogous conditions. […]

With `CC(=O)Oc1c(Cl)cc2c(c1CN(Cc1ccccn1)Cc1ccccn1)Oc1c(cc(Cl)c(OC(C)=O)c1CN(Cc1ccccn1)Cc1ccccn1)C21OC(=O)c2ccc(C(=O)NCC[P+](c3ccccc3)(c3ccccc3)c3ccccc3)cc21` [DA-ZP1-TPP] the “fluorescence turn-on under acidic conditions” value ([1]; absence of zinc) was “no significant fluorescence turn-on under acidic conditions”, the “pH at which a strong zinc-dependent fluorescence response is displayed” value ([1]; presence of excess zinc ions (125 μM ZnCl2)) was greater than 5 and the “metal ion selectivity of fluorescence response” value [2] was “responds to Zn(II) over biologically relevant cations such as Ca(II) and Mg(II)”. The t1/2-Esterase of deacetylation [3] was 2.9 h.
